Experimental data published in ChEMBL document CHEMBL1201862, “PubChem BioAssay data set” (2004).
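Compound exposure: 48 hours, 5 concentrations, 96-well plates. Here, GI50 denotes the concentration required for 50% inhibition of growth.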 Active and inactive are the calls of the source. Rule as the data show it: active = GI50 up to about 1.1 µM and inactive = higher.

Tests used:
Assay in all cases: growth of human tumour cells (NCI), 48 h
A498 = tested on: A498
M14 = tested on: M14
MOLT-4 = tested on: MOLT-4
NCI-H226 = tested on: NCI-H226
NCI-H23 = tested on: NCI-H23
NCI-H460 = tested on: NCI-H460
RXF 393 = tested on: RXF 393
SF-268 = tested on: SF-268
SN12C = tested on: SN12C
SNB-19 = tested on: SNB-19
SR = tested on: SR
UACC-257 = tested on: UACC-257
UACC-62 = tested on: UACC-62
UO-31 = tested on: UO-31
HCC 2998 = tested on: HCC 2998
HCT-15 = tested on: HCT-15
RPMI-8226 = tested on: RPMI-8226
MDA-MB-231 = tested on: MDA-MB-231
MCF7 = tested on: MCF7
MDA-N = tested on: MDA-N

Row | SMILES | GI50 (A498) | GI50 (M14) | GI50 (MOLT-4) | GI50 (NCI-H226) | GI50 (NCI-H23) | GI50 (NCI-H460) | GI50 (RXF 393) | GI50 (SF-268) | GI50 (SN12C) | GI50 (SNB-19) | GI50 (SR) | GI50 (UACC-257) | GI50 (UACC-62) | GI50 (UO-31) | GI50 (HCC 2998) | GI50 (HCT-15) | GI50 (RPMI-8226) | GI50 (MDA-MB-231) | GI50 (MCF7) | GI50 (MDA-N)
1 | O=c1[nH]c(=O)n(C2CC(O)C(CO)O2)cc1/C=C/Br (stereo not drawn) | > 100 µM (inactive) | > 100 µM (inactive) | > 100 µM (inactive) | > 100 µM (inactive) | > 100 µM (inactive) | > 100 µM (inactive) | > 100 µM (inactive) | > 100 µM (inactive) | > 100 µM (inactive) | > 100 µM (inactive) | > 100 µM (inactive) | > 100 µM (inactive) | > 100 µM (inactive) | > 100 µM (inactive) | – | – | – | – | – | –
2 | CNC(=O)OCc1nc(SSc2nc(COC(=O)NC)c(COC(=O)NC)n2C)n(C)c1COC(=O)NC | > 100 µM (inactive) | > 100 µM (inactive) | > 100 µM (inactive) | > 100 µM (inactive) | > 100 µM (inactive) | > 100 µM (inactive) | > 100 µM (inactive) | > 100 µM (inactive) | > 100 µM (inactive) | > 100 µM (inactive) | > 100 µM (inactive) | > 100 µM (inactive) | > 100 µM (inactive) | > 100 µM (inactive) | > 100 µM (inactive) | > 100 µM | > 100 µM (inactive) | – | – | –
3 | O=c1[nH]ncc2[nH]c3c(c12)CCc1ccccc1-3 | 27.7 µM (inactive) | 44.3 µM (inactive) | 24.3 µM (inactive) | 13.5 µM (inactive) | 39.4 µM (inactive) | 28.2 µM (inactive) | 16.6 µM (inactive) | 32.1 µM (inactive) | 36.5 µM (inactive) | 54.3 µM (inactive) | 19.1 µM (inactive) | 45.6 µM (inactive) | – | 30.2 µM (inactive) | – | 30.8 µM | 30.1 µM (inactive) | 37.9 µM (inactive) | – | –
4 | C/N=C(\N)N/N=C(\C)c1ccc2oc3ccc(/C(C)=N/N/C(N)=N/C)cc3c2c1 | – | 3.24 µM (inactive) | 0.805 µM (active) | 2.08 µM (inactive) | 2.39 µM (inactive) | 1.98 µM (inactive) | – | 2.09 µM (inactive) | 2.46 µM (inactive) | 2.11 µM (inactive) | 1.51 µM (inactive) | 25.6 µM (inactive) | 2.88 µM (inactive) | 6.31 µM (inactive) | 2 µM (inactive) | > 23 µM | 2.38 µM (inactive) | – | 1.05 µM (active) | 3.62 µM (inactive)
5 | C/C(=N\NC(N)=S)c1ccc2c(c1)OCO2 | > 100 µM (inactive) | > 100 µM (inactive) | > 100 µM (inactive) | > 100 µM (inactive) | > 100 µM (inactive) | > 100 µM (inactive) | > 100 µM (inactive) | > 100 µM (inactive) | > 100 µM (inactive) | > 100 µM (inactive) | > 100 µM (inactive) | 99.1 µM (inactive) | > 100 µM (inactive) | 76.2 µM (inactive) | > 100 µM (inactive) | > 100 µM | > 100 µM (inactive) | – | – | –
6 | O=C(Nc1c(O)[nH]c(=S)[nH]c1=O)c1ccccn1 | > 100 µM (inactive) | > 100 µM (inactive) | > 100 µM (inactive) | > 100 µM (inactive) | > 100 µM (inactive) | > 100 µM (inactive) | – | > 100 µM (inactive) | > 100 µM (inactive) | > 100 µM (inactive) | > 100 µM (inactive) | > 100 µM (inactive) | > 100 µM (inactive) | > 100 µM (inactive) | – | > 100 µM | > 100 µM (inactive) | – | – | –
7 | O=C(c1c(O)cc(O)cc1O)C1Cc2ccccc21 (stereo not drawn) | > 100 µM (inactive) | > 100 µM (inactive) | > 100 µM (inactive) | > 100 µM (inactive) | – | 82.4 µM (inactive) | 76 µM (inactive) | 53.1 µM (inactive) | > 100 µM (inactive) | 64 µM (inactive) | > 100 µM (inactive) | > 100 µM (inactive) | > 100 µM (inactive) | 58.3 µM (inactive) | > 100 µM (inactive) | > 100 µM | 58.1 µM (inactive) | – | – | –
8 | CN1C(=O)C(c2c[nH]c3ccccc23)N(C)C(=O)C1c1c[nH]c2ccccc12 (stereo not drawn) | – | > 100 µM (inactive) | > 100 µM (inactive) | – | > 100 µM (inactive) | > 100 µM (inactive) | 46.9 µM (inactive) | 86.3 µM (inactive) | > 100 µM (inactive) | > 10 µM (inactive) | – | > 100 µM (inactive) | > 100 µM (inactive) | > 100 µM (inactive) | > 100 µM (inactive) | > 100 µM | – | 34.2 µM (inactive) | > 100 µM (inactive) | > 100 µM (inactive)
9 | Fc1ccccc1C1SCc2nc3ccccc3n21 (stereo not drawn) | 9.62 µM (inactive) | – | 30.4 µM (inactive) | 76.7 µM (inactive) | 33.2 µM (inactive) | 47.9 µM (inactive) | 92 µM (inactive) | 69.8 µM (inactive) | 79.6 µM (inactive) | 86.7 µM (inactive) | 38.1 µM (inactive) | 33.7 µM (inactive) | 35 µM (inactive) | 24.8 µM (inactive) | 75.2 µM (inactive) | – | 25.5 µM (inactive) | – | – | –
10 | O=C(Cc1nc2ccccc2s1)Nc1ccc(Cl)cc1 | > 100 µM (inactive) | 77.1 µM (inactive) | > 100 µM (inactive) | > 100 µM (inactive) | > 100 µM (inactive) | > 100 µM (inactive) | > 100 µM (inactive) | > 100 µM (inactive) | > 100 µM (inactive) | > 100 µM (inactive) | > 100 µM (inactive) | > 100 µM (inactive) | 82.2 µM (inactive) | > 100 µM (inactive) | > 100 µM (inactive) | – | – | – | – | –
11 | Oc1c(Cl)c(Cl)c(O)c(CCNc2ccc3ncccc3c2)c1Cl | – | 11.5 µM (inactive) | 1.15 µM (inactive) | – | 10.2 µM (inactive) | 18.9 µM (inactive) | 18.9 µM (inactive) | 5.13 µM (inactive) | 13.9 µM (inactive) | 13.3 µM (inactive) | 3.14 µM (inactive) | 17.9 µM (inactive) | 10.9 µM (inactive) | 12.2 µM (inactive) | 12.9 µM (inactive) | 14.9 µM | – | – | 4.76 µM (inactive) | –
12 | CSc1ncc2c(C#N)c3n(C)c4ccccc4n3c(=O)c2n1 | > 100 µM (inactive) | > 100 µM (inactive) | > 100 µM (inactive) | > 100 µM (inactive) | > 100 µM (inactive) | > 100 µM (inactive) | > 100 µM (inactive) | > 100 µM (inactive) | > 100 µM (inactive) | > 100 µM (inactive) | > 100 µM (inactive) | > 100 µM (inactive) | > 100 µM (inactive) | > 100 µM (inactive) | > 100 µM (inactive) | > 100 µM | > 100 µM (inactive) | > 100 µM (inactive) | > 100 µM (inactive) | –
13 | N#COc1ccc(Oc2ccccc2)cc1 | > 100 µM (inactive) | 58.7 µM (inactive) | 42.9 µM (inactive) | > 100 µM (inactive) | 39.4 µM (inactive) | 43.2 µM (inactive) | > 100 µM (inactive) | 75.2 µM (inactive) | 62.4 µM (inactive) | > 100 µM (inactive) | 24.3 µM (inactive) | > 100 µM (inactive) | 31.5 µM (inactive) | 50.9 µM (inactive) | 55.5 µM (inactive) | 57.7 µM | 30.4 µM (inactive) | – | – | –
14 | N#CC1CC2(CCN1C(=O)c1ccccc1)OCCO2 (stereo not drawn) | > 100 µM (inactive) | > 100 µM (inactive) | > 100 µM (inactive) | > 100 µM (inactive) | > 100 µM (inactive) | > 100 µM (inactive) | > 100 µM (inactive) | > 100 µM (inactive) | > 100 µM (inactive) | > 100 µM (inactive) | > 100 µM (inactive) | > 100 µM (inactive) | > 100 µM (inactive) | > 100 µM (inactive) | > 100 µM (inactive) | > 100 µM | > 100 µM (inactive) | – | – | –
15 | Cc1ccccc1Nc1cn(CCOc2ccccc2)c(=O)n(CCOc2ccccc2)c1=O | > 100 µM (inactive) | > 100 µM (inactive) | > 100 µM (inactive) | – | > 100 µM (inactive) | > 100 µM (inactive) | > 100 µM (inactive) | > 100 µM (inactive) | > 100 µM (inactive) | > 10 µM (inactive) | – | > 100 µM (inactive) | > 100 µM (inactive) | > 100 µM (inactive) | > 100 µM (inactive) | > 100 µM | > 100 µM (inactive) | – | 90.8 µM (inactive) | > 100 µM (inactive)
16 | CC(SC(=O)Nc1ccc(/N=N/c2ccccc2)cc1)C(=O)O (stereo not drawn) | > 100 µM (inactive) | > 100 µM (inactive) | 34 µM (inactive) | > 100 µM (inactive) | > 100 µM (inactive) | > 100 µM (inactive) | 73.5 µM (inactive) | 17.3 µM (inactive) | > 100 µM (inactive) | > 100 µM (inactive) | 49 µM (inactive) | 98.6 µM (inactive) | 28.8 µM (inactive) | 68.7 µM (inactive) | > 100 µM (inactive) | > 100 µM | > 100 µM (inactive) | – | – | –
17 | O=S(=O)(N/C(=N\O)Nc1ccc(Cl)cc1)c1ccc(S(=O)(=O)c2ccccc2)s1 | 15.5 µM (inactive) | 18.5 µM (inactive) | 12.9 µM (inactive) | 14.6 µM (inactive) | 17 µM (inactive) | 14.4 µM (inactive) | 24 µM (inactive) | 23.1 µM (inactive) | 17.4 µM (inactive) | 33.7 µM (inactive) | – | 16 µM (inactive) | 14.9 µM (inactive) | 19.4 µM (inactive) | 14.3 µM (inactive) | 28.1 µM | 13.6 µM (inactive) | 22.3 µM (inactive) | 27 µM (inactive) | –
